The source of these data is PMC8460406, “PET/CT imaging of head-and-neck and pancreatic cancer in humans by targeting the “Cancer Integrin” αvβ6 with Ga-68-Trivehexin” (European Journal of Nuclear Medicine and Molecular Imaging, 2021).

One data set deals with αvβ3-integrin (Homo sapiens, UniProt P05106+P06756). Briefly: ELISA on immobilized integrins (integrin affinity), αvβ3. In kind it is binding. To be noted: for IC50: 95% confidence interval in parentheses; for αvβ6-selectivity over αvβ3: IC50-based factor. The text has this:
(§1) Materials, reagents, general procedures, and instrumentation used for chemical syntheses and analyses have been detailed elsewhere. In addition to what has been reported before, the building block TRAP(azide)3 was purchased from Fosfinos s.r.o. (Kladno, CZ). c[FGDLAFp(NMe)K(pentynoic amide)] and TRAP(AvB6)3 were synthesized according to the literature. Previously described protocols were followed for determination of integrin affinities by ELISA on immobilized integrins and for β6-integrin immunohistochemistry (IHC).
A general note: ELISA stands for enzyme-linked immunosorbent assay.

Data set [1] addresses T1, αvβ6-integrin (Homo sapiens, UniProt P06756+P18564). Briefly: ELISA on immobilized integrins (integrin affinity), αvβ6. The note with it: 95% confidence interval in parentheses. Format: binding.
From the text: as §1

The target of the next data set is αvβ8-integrin (Homo sapiens, UniProt P06756+P26012). Briefly: ELISA on immobilized integrins (integrin affinity), αvβ8. Format: binding. To be noted: for IC50: 95% confidence interval in parentheses; for αvβ6-selectivity over αvβ8: IC50-based factor.
From the text: as §1

The target in a further data set is α5β1-integrin (Homo sapiens, UniProt P05556+P08648). Briefly: ELISA on immobilized integrins (integrin affinity), α5β1. Format: binding. To be noted: for αvβ6-selectivity over α5β1: IC50-based factor.
From the text: as §1

For data set [2], the system named is αvβ6-integrin expressing carcinomas. The data set can be described thus: PET/CT imaging of carcinomas in human (HNSCC, parotideal adenocarcinoma, PDAC). In kind it is in vivo. As to the method: All human participants provided written informed consent, also for publication of images, prior to the investigation. […] No significant changes in vital signs or the results of laboratory studies or electrocardiograms were observed. Data for a total of 4 human subjects were included in this report. The PET/CT for patient #1 was performed according to a previously published protocol, as was calculation of the dosimetric parameters.
A panendoscopy and tracheostomy were carried out 4 weeks prior to the [^18F]FDG. The tumor was not suitable for surgical removal and a simultaneous radiochemotherapy was indicated.
Patient #3 (Fig. 4C–E) was diagnosed with an adenocarcinoma (salivary duct carcinoma) in the right […] in 2019 and initially underwent total parotidectomy and unilateral neck dissection (pT2 pN1b [21/23] L1 V1 Pn1 R1). A post-resection and contralateral neck-dissection was performed 1 month later, followed by adjuvant radiation. In 2020 the patient developed prelaryngeal and lateral orbita angle metastases, which were resected and adjuvantly irradiated. […] Since no further tumor manifestations were present in both examinations, surgical resection was indicated and performed. β6-integrin IHC [21] was done for specimen of the excised metastasis.
Patient #4 was diagnosed with a carcinoma of the pancreatic head by endosonography and CT morphology. Pancreatic adenocarcinoma was verified by biopsy. […] According to this finding, surgical treatment was rejected and a chemotherapy regimen was started.

For data set [3], the target named is T1, αvβ6-integrin. To be noted: cited from earlier work.
The format of data set [4] is physicochemical. To be noted: pH 7.4. The text has this: Radiolabeling for preclinical experiments and determination of n-octanol–PBS distribution coefficients (log D7.4) was done as described. Applying this protocol, 5 nmol (0.5 nmol for cellular assays in order to maximize molar activity) of TRAP(AvB6)3 or Trivehexin were labeled with ^68 Ga at pH 2, resulting in RCY > 95%. The purity of the radiolabeled compounds was confirmed by radio-TLC, using silica impregnated glass fiber chromatography paper (ITLC® by Agilent) as stationary phase and 0.1 M aq. sodium citrate as mobile phase (purities were > 99%).

Another data set in a line: in vivo. To be noted: SCID, mouse, total radioactivity. The source says: All animal experiments were approved by the responsible authority (Regierung von Oberbayern) and have been performed in accordance with general animal welfare regulations in Germany and the institutional guidelines for the care and use of animals. Keeping of the animals, generation of subcutaneous H2009 and MDA-MB-231 tumor xenografts, ex-vivo biodistribution studies, and µPET imaging were done according to previously described protocols. Multiplicity of PET and biodistribution studies ranged from 3 to 5; animal numbers for each individual experiment are denoted in the respective data tables in the Supporting Information and, additionally, in the Results section.

Where [5] appears, read: ref [34], read-out: IC50 (αvβ6-integrin affinity).

Like-named read-outs stand apart in the source and are kept apart here.

T1 sequence (P06756 31-992 limits assumed): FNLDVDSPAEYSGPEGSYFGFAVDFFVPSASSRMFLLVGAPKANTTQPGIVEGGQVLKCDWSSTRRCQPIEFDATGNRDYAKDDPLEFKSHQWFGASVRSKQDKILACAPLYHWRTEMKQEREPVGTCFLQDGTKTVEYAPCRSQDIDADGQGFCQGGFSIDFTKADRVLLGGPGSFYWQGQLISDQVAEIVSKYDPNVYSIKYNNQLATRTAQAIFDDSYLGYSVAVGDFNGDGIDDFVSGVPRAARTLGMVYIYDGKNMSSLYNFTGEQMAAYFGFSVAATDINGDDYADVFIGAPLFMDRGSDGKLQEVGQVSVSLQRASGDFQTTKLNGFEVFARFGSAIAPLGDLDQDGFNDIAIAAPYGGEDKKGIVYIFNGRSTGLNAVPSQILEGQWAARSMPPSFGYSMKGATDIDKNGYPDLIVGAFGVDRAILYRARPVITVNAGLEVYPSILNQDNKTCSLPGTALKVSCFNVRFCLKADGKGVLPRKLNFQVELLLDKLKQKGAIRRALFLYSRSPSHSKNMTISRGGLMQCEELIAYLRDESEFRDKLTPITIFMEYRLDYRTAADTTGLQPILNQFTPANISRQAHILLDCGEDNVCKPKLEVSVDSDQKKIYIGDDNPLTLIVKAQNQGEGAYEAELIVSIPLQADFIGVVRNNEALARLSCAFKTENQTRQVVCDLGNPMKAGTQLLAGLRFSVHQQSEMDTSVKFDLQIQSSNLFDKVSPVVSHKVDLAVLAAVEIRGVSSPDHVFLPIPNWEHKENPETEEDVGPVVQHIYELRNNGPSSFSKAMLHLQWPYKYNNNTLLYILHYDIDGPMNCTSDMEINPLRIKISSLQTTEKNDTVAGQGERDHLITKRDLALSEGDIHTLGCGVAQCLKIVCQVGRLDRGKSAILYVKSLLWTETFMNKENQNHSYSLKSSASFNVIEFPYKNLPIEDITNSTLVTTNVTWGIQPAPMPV
T1 sequence (P18564 22-707 limits assumed): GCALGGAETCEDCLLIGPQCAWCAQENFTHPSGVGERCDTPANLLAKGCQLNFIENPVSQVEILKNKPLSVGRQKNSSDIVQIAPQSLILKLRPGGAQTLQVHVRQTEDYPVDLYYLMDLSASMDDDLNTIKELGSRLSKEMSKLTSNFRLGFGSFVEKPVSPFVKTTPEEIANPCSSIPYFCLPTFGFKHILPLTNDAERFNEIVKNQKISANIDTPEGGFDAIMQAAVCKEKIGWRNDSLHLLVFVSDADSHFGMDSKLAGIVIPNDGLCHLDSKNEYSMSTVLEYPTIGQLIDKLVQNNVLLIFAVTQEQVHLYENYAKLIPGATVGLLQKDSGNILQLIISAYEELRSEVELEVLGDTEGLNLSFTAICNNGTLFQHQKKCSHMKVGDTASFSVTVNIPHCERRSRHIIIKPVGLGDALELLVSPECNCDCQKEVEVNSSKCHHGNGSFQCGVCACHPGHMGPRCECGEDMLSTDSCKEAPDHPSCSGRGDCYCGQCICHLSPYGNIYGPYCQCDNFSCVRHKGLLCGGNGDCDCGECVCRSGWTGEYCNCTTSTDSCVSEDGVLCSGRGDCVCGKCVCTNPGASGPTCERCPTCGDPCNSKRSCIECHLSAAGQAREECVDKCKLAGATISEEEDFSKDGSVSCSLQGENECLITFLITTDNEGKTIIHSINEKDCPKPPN
αvβ8-integrin, sequence (P06756 31-992 limits assumed): as the sequence (P06756 31-992 limits assumed) above
αvβ8-integrin, sequence (P26012 43-684 limits assumed): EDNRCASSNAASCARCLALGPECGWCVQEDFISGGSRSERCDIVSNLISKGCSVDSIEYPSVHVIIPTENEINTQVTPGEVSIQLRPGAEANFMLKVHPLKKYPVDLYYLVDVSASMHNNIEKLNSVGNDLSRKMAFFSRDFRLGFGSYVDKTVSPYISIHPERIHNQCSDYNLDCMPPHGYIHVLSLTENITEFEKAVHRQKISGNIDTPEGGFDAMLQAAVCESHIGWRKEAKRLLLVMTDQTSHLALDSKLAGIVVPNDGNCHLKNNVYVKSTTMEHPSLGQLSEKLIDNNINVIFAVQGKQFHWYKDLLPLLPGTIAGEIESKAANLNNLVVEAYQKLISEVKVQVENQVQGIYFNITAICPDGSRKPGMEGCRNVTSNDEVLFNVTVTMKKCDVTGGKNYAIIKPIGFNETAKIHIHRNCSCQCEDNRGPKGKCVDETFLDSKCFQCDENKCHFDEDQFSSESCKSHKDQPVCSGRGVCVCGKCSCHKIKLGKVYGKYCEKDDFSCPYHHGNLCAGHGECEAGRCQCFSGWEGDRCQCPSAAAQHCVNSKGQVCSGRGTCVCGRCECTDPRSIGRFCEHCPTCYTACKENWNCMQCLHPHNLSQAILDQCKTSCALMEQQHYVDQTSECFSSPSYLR
α5β1-integrin, sequence (P08648 42-995 limits assumed): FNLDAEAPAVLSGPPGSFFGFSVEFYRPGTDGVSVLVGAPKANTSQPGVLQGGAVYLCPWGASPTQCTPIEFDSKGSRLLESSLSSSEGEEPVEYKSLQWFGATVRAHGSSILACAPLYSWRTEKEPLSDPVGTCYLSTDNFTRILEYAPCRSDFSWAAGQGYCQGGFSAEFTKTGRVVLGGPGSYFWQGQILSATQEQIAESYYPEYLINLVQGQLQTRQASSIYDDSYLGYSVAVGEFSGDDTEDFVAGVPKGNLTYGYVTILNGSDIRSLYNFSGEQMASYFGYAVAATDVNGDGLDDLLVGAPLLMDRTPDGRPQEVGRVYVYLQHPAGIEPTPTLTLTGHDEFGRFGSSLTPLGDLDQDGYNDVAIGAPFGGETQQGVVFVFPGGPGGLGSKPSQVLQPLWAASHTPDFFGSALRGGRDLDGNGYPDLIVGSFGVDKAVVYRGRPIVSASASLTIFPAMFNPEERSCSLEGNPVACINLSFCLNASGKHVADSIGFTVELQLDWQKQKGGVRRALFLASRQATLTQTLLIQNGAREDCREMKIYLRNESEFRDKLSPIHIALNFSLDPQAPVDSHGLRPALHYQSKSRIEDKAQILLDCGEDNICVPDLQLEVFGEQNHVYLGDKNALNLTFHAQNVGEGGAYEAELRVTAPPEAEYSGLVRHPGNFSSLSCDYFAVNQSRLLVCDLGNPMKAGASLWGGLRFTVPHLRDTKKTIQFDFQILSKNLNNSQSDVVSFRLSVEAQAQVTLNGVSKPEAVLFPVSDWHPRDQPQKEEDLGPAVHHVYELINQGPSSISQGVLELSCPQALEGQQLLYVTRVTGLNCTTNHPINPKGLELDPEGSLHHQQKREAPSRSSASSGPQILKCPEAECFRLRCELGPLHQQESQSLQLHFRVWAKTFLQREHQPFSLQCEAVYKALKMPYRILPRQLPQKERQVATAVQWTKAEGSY
α5β1-integrin, sequence (P05556 21-728 limits assumed): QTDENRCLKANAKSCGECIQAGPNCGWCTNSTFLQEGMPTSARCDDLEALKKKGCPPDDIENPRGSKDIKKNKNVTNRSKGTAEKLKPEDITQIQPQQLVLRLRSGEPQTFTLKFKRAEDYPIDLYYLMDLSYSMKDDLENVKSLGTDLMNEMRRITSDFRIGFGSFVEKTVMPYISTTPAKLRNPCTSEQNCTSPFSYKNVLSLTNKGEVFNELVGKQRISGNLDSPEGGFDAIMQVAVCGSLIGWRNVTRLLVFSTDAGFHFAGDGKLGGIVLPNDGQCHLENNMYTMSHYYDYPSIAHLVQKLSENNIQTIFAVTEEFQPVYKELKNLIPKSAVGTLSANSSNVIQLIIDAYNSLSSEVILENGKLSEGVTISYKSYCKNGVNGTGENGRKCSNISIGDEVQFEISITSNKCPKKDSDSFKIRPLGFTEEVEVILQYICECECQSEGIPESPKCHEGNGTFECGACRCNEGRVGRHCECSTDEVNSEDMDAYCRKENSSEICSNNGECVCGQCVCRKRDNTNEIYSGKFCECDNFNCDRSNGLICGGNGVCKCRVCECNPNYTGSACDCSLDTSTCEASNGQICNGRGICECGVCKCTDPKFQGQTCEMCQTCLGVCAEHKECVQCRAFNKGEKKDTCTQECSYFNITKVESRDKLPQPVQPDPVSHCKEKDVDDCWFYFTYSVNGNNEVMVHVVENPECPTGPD

Regarding `C#CCCC(=O)NCCCC[C@H]1C(=O)N[C@@H](Cc2ccc(O)cc2)C(=O)N[C@@H](CCCNC(=N)N)C(=O)NCC(=O)N[C@@H](CC(=O)O)C(=O)N[C@@H](CC(C)C)C(=O)N[C@@H](C)C(=O)N[C@@H](Cc2ccc(O)cc2)C(=O)N2CCC[C@@H]2C(=O)N1C` [Tyr2-alkyne, c[YRGDLAYp(NMe)K(pentynoic amide)]], the IC50 on αvβ3-integrin came to 219 nM; on αvβ6-integrin [1] it was 0.84 nM; on αvβ8-integrin it was 26 nM; at α5β1-integrin (95% confidence interval in parentheses), 150 nM. For the same compound, the “αvβ6-selectivity over αvβ3” value at αvβ3-integrin is reported as 261. Further, the “αvβ6-selectivity over αvβ8” value on αvβ8-integrin is 31. In addition, the “αvβ6-selectivity over α5β1” value on α5β1-integrin came to 179.

With `OC[C@H]1OC(O)[C@H]([18F])[C@@H](O)[C@@H]1O` (some centres unmarked) [[^18F]FDG], the “SUVmax around 7-week-old tracheostoma (inflammation)” value in data set [2] (patient #2, 61-62 min p.i.) amounted to 10.2. Further, the “SUVmax prelaryngeal cutaneous metastasis of parotideal adenocarcinoma” value in data set [2] (patient #3, 67-71 min p.i.) is 6.1. For the same compound, the metabolic tumor volume in data set [2] (patient #3, prelaryngeal cutaneous metastasis) is on record as 2.2 cm^3.

Turning to `CC(C)C[C@@H]1NC(=O)[C@H](CC(=O)O)NC(=O)CNC(=O)[C@H](CCCNC(=N)N)NC(=O)[C@H](Cc2ccccc2)NC(=O)[C@H](CCCCNC(=O)CCc2cn(CCCNC(=O)CCP(=O)(O)CN3CCN(CP(=O)(O)CCC(=O)NCCCn4cc(CCC(=O)NCCCC[C@H]5C(=O)N[C@@H](Cc6ccccc6)C(=O)N[C@@H](CCCNC(=N)N)C(=O)NCC(=O)N[C@@H](CC(=O)O)C(=O)N[C@@H](CC(C)C)C(=O)N[C@@H](C)C(=O)N[C@@H](Cc6ccccc6)C(=O)N6CCC[C@@H]6C(=O)N5C)nn4)CCN(CP(=O)(O)CCC(=O)NCCCn4cc(CCC(=O)NCCCC[C@H]5C(=O)N[C@@H](Cc6ccccc6)C(=O)N[C@@H](CCCNC(=N)N)C(=O)NCC(=O)N[C@@H](CC(=O)O)C(=O)N[C@@H](CC(C)C)C(=O)N[C@@H](C)C(=O)N[C@@H](Cc6ccccc6)C(=O)N6CCC[C@@H]6C(=O)N5C)nn4)CC3)nn2)N(C)C(=O)[C@H]2CCCN2C(=O)[C@H](Cc2ccccc2)NC(=O)[C@H](C)NC1=O` [^68 Ga-TRAP(AvB6)3], at αvβ6-integrin [3] (ref [17], read-out: αvβ6-integrin affinity), the IC50 was 0.023 nM. Moreover, the “n-octanol-PBS distribution coefficient log D7.4” value in data set [4] is “− 1.5 ± 0.1”. Moreover, the tissue to tissue ratio at 1.5 h turned out to be 3.7 in the data set “in vivo” (tumor/organ ratio Adrenals); 2.2 in “in vivo” (tumor/organ ratio Blood); 4.2 in the data set “in vivo” (tumor/organ ratio Heart (myocard)); 0.1 in the data set “in vivo” (tumor/organ ratio Kidneys); 1.6 in the data set “in vivo” (tumor/organ ratio Large intestine (empty)); 1.2 in the data set “in vivo” (tumor/organ ratio Liver). The tissue to tissue ratio at 1.5 h in “in vivo” (tumor/organ ratio Lung) amounted to 0.6; in the data set “in vivo” (tumor/organ ratio Muscle), 8.1; in the data set “in vivo” (tumor/organ ratio Pancreas), 10.1; in “in vivo” (tumor/organ ratio Small intestine (empty)) it was 2.2; in the data set “in vivo” (tumor/organ ratio Spleen) it was 1.7; in “in vivo” (tumor/organ ratio Stomach (empty)) it was 0.9.

With `C#CCCC(=O)NCCCC[C@H]1C(=O)N[C@@H](Cc2ccccc2)C(=O)N[C@@H](CCCNC(=N)N)C(=O)NCC(=O)N[C@@H](CC(=O)O)C(=O)N[C@@H](CC(C)C)C(=O)N[C@@H](C)C(=O)N[C@@H](Cc2ccccc2)C(=O)N2CCC[C@@H]2C(=O)N1C` [c[FRGDLAFp(NMe)K(pentynoic amide)], reference compound], at αvβ3-integrin, the IC50 was 424 nM and the “αvβ6-selectivity over αvβ3” value was found to be 2494. At αvβ6-integrin [1], the IC50 stood at 0.17 nM. Also, on αvβ8-integrin, the IC50 was 32 nM and the “αvβ6-selectivity over αvβ8” value was 188. Besides, on α5β1-integrin, the “αvβ6-selectivity over α5β1” value worked out at 1329.

Regarding “c[FRGDLAYp(NMe)K] (FRGDLAYPK; HELM PEPTIDE1{F.R.G.D.L.A.Y.[dP].[meK]}$PEPTIDE1,PEPTIDE1,1:R1-9:R2$$$V2.0; SMILES CC(C)C[C@@H]1NC(=O)[C@H](CC(=O)O)NC(=O)CNC(=O)[C@H](CCCNC(=N)N)NC(=O)[C@H](Cc2ccccc2)NC(=O)[C@H](CCCCN)N(C)C(=O)[C@H]2CCCN2C(=O)[C@H](Cc2ccc(O)cc2)NC(=O)[C@H](C)NC1=O)”, the IC50 with αvβ6-integrin [3] (setting [5]) was 0.39 nM.

As for “c[YRGDLAFp(NMe)K] (YRGDLAFPK; HELM PEPTIDE1{Y.R.G.D.L.A.F.[dP].[meK]}$PEPTIDE1,PEPTIDE1,1:R1-9:R2$$$V2.0; SMILES CC(C)C[C@@H]1NC(=O)[C@H](CC(=O)O)NC(=O)CNC(=O)[C@H](CCCNC(=N)N)NC(=O)[C@H](Cc2ccc(O)cc2)NC(=O)[C@H](CCCCN)N(C)C(=O)[C@H]2CCCN2C(=O)[C@H](Cc2ccccc2)NC(=O)[C@H](C)NC1=O)”, the IC50 with αvβ6-integrin [3] (setting [5]) is 0.4 nM.
